This note sets out measurements from US8119624B2, “Fused phenyl amido heterocyclic compounds” (Pfizer Inc., priority 2006, dated 2012).

Broadly, the EC50 is the midpoint of the concentration-response curve.

The assay deals with T1, Full-length glucokinase (beta cell isoform) (Homo sapiens, UniProt P35557).
T1 construct: Full-length glucokinase (beta cell isoform) was His-tagged at N-terminus; His tag (N); made in house
T1 sequence (P35557 1-465): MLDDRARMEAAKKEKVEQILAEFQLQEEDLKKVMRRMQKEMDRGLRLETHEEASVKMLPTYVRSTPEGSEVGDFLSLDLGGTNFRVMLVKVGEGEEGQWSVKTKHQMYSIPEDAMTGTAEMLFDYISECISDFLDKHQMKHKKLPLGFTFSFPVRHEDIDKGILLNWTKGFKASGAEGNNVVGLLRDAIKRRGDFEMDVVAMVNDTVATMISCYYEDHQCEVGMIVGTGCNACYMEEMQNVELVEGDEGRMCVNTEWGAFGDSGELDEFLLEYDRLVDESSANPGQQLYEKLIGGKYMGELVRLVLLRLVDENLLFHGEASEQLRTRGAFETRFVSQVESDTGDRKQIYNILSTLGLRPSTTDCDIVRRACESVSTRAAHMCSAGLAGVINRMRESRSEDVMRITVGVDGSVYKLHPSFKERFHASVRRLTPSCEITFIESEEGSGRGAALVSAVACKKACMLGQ
Put plainly: Glucokinase biochemical assay (PK/LDH-coupled, NADH depletion at 340 nm): % activation, EC50, % max activation. Particulars: 5 mM glucose; for activation at 10 µM: 10 uM compound, % Activation=(Va/Vo−1)×100, read-out: % Activation at 10 uM; for EC50: GK activation, read-out: EC50; for Emax: fitted maximum activation, read-out: % Max Activation. Summed up:
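N-terminally His-tagged full-length human beta-cell glucokinase, room temperature, 5 mM glucose, 1 mM ATP, PK/LDH-coupled with 0.7 mM NADH, 1% DMSO final. Initial velocity from the 200–900 s slope of A340 decline. % activation = (Va/Vo−1)×100, measured across compound concentrations.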

As for `CCNC(=O)c1ncc(Oc2cc(C(=O)Nc3ccn(C)n3)cc3c2CC(C)(C)O3)cc1F` [Example 177, 5-[2,2-Dimethyl-6-(1-methyl-1H-pyrazol-3-ylcarbamoyl)-2,3-dihydro-benzofuran-4-yloxy]-3-fluoro-pyridine-2-carboxylic acid ethylamide], the activation at 10 µM came out at 204%, the EC50 turned out to be 350 nM and the Emax came out at 189%.
As for `CN(C)C(=O)c1ncc(Oc2cc(C(=O)Nc3ccn(C)n3)cc3c2CC(C)(C)O3)cc1F` [Example 178, 5-[2,2-Dimethyl-6-(1-methyl-1H-pyrazol-3-ylcarbamoyl)-2,3-dihydro-benzofuran-4-yloxy]-3-fluoro-pyridine-2-carboxylic acid dimethylamide], the activation at 10 µM is 198%, the half-maximal effective concentration (EC50) was found to be 90 nM and the Emax was determined as 147%.
Regarding `Cn1ccc(NC(=O)c2cc(Oc3ccc(C(=O)O)nc3)c3c(c2)OC(C)(C)C3)n1` [Example 180, 5-[2,2-Dimethyl-6-(1-methyl-1H-pyrazol-3-ylcarbamoyl)-2,3-dihydro-benzofuran-4-yloxy]-pyridine-2-carboxylic acid], the activation at 10 µM is 66.5% and the EC50 is more than 10000 nM.
As to `Cn1ccc(NC(=O)c2cc(Oc3ccc(C#N)nc3)c3c(c2)OC(C)(C)C3)n1` [Example 181, 4-(6-Cyano-pyridin-3-yloxy)-2,2-dimethyl-2,3-dihydro-benzofuran-6-carboxylic acid (1-methyl-1H-pyrazol-3-yl)-amide], the activation at 10 µM came out at 171%, the 50% effective concentration (EC50) amounted to 1100 nM and the Emax turned out to be 182%.
The like results for `Cn1ccc(NC(=O)c2cc(Oc3ccc(-c4ncon4)nc3)c3c(c2)OC(C)(C)C3)n1` [Example 182, 2,2-Dimethyl-4-(6-[1,2,4]oxadiazol-3-yl-pyridin-3-yloxy)-2,3-dihydro-benzofuran-6-carboxylic acid (1-methyl-1H-pyrazol-3-yl)-amide] were, in that order, 244%, 290 nM and 237%.
The like results for `Cn1ccc(NC(=O)c2cc(Oc3ccc(C#N)c(F)c3)c3c(c2)OC(C)(C)C3)n1` [Example 183, 4-(4-Cyano-3-fluoro-phenoxy)-2,2-dimethyl-2,3-dihydro-benzofuran-6-carboxylic acid (1-methyl-1H-pyrazol-3-yl)-amide] were, in that order, 237%, 1900 nM and 236%.
As to `Cn1ncc(NC(=O)c2cc(Oc3ccc(C#N)c(F)c3)c3c(c2)OC(C)(C)C3)n1` [Example 184, 4-(4-Cyano-3-fluoro-phenoxy)-2,2-dimethyl-2,3-dihydro-benzofuran-6-carboxylic acid (2-methyl-2H-[1,2,3]triazol-4-yl)-amide], the activation at 10 µM came out at 250%, the EC50 was 3200 nM and the Emax amounted to 251%.
In the case of `Cn1ccc(NC(=O)c2cc(Oc3ccc(-c4ncon4)c(F)c3)c3c(c2)OC(C)(C)C3)n1` [Example 185, 4-(3-Fluoro-4-[1,2,4]oxadiazol-3-yl-phenoxy)-2,2-dimethyl-2,3-dihydro-benzofuran-6-carboxylic acid (1-methyl-1H-pyrazol-3-yl)-amide], the activation at 10 µM was 248%, the 50% effective concentration (EC50) came to 104 nM and the Emax was 227%.
Regarding `Cn1ncc(NC(=O)c2cc(Oc3ccc(-c4ncon4)c(F)c3)c3c(c2)OC(C)(C)C3)n1` [Example 186, 4-(3-Fluoro-4-[1,2,4]oxadiazol-3-yl-phenoxy)-2,2-dimethyl-2,3-dihydro-benzofuran-6-carboxylic acid (2-methyl-2H-[1,2,3]triazol-4-yl)-amide], the activation at 10 µM is 135%, the EC50 came out at 160 nM and the Emax was determined as 234%.
For the compound `Cn1ccc(NC(=O)c2cc(Oc3ccc(-c4ncon4)cc3)c3c(c2)OC(C)(C)C3)n1` [Example 187, 2,2-Dimethyl-4-(4-[1,2,4]oxadiazol-3-yl-phenoxy)-2,3-dihydro-benzofuran-6-carboxylic acid (1-methyl-1H-pyrazol-3-yl)-amide], the activation at 10 µM is 178% and the EC50 was more than 10000 nM.
`Cn1ncc(NC(=O)c2cc(Oc3ccc(-c4ncon4)cc3)c3c(c2)OC(C)(C)C3)n1` [Example 188, 2,2-Dimethyl-4-(4-[1,2,4]oxadiazol-3-yl-phenoxy)-2,3-dihydro-benzofuran-6-carboxylic acid (2-methyl-2H-[1,2,3]triazol-4-yl)-amide]: the activation at 10 µM was found to be 198%, the concentration for a half-maximal effect (EC50) is 620 nM and the Emax was 230%.
The like results for `Cn1ccc(NC(=O)c2cc(Oc3ccc(-c4ncon4)c(Cl)c3)c3c(c2)OC(C)(C)C3)n1` [Example 189, 4-(3-Chloro-4-[1,2,4]oxadiazol-3-yl-phenoxy)-2,2-dimethyl-2,3-dihydro-benzofuran-6-carboxylic acid (1-methyl-1H-pyrazol-3-yl)-amide] were, in that order, 219%, 870 nM and 245%.
The corresponding values for `Cn1ccc(NC(=O)c2cc(Oc3ccc(S(C)(=O)=O)cc3)c3c(c2F)OC(C)(C)C3)n1` [Example 190, 7-Fluoro-4-(4-methanesulfonyl-phenoxy)-2,2-dimethyl-2,3-dihydro-benzofuran-6-carboxylic acid (1-methyl-1H-pyrazol-3-yl)-amide] are 83.9%, 7300 nM and 138%.
The corresponding values for `Cn1ccc(NC(=O)c2cc(Oc3ccc(C(=O)N4CCC4)cc3)c3c(c2F)OC(C)(C)C3)n1` [Example 191, 4-[4-(Azetidine-1-carbonyl)-phenoxy]-7-fluoro-2,2-dimethyl-2,3-dihydro-benzofuran-6-carboxylic acid (1-methyl-1H-pyrazol-3-yl)-amide] are 91.2%, 1700 nM and 119%.
As for `Cn1ccc(NC(=O)c2cc3c(c(Oc4ccc(S(C)(=O)=O)cc4)c2F)CC(C)(C)O3)n1` [Example 192, 5-Fluoro-4-(4-methanesulfonyl-phenoxy)-2,2-dimethyl-2,3-dihydro-benzofuran-6-carboxylic acid (1-methyl-1H-pyrazol-3-yl)-amide], the activation at 10 µM is 249%, the concentration for a half-maximal effect (EC50) amounted to 2100 nM and the Emax amounted to 285%.
For the compound `Cn1ccc(NC(=O)c2cc(OC3CN(S(C)(=O)=O)C3)c3c(c2)OC(C)(C)C3)n1` [Example 193, 4-(1-Methanesulfonyl-azetidin-3-yloxy)-2,2-dimethyl-2,3-dihydro-benzofuran-6-carboxylic acid (1-methyl-1H-pyrazol-3-yl)-amide], the activation at 10 µM is 116%, the half-maximal effective concentration (EC50) amounted to 8800 nM and the Emax was 237%.
Take `Cn1ncc(NC(=O)c2cc(OC3CN(S(C)(=O)=O)C3)c3c(c2)OC(C)(C)C3)n1` [Example 194, 4-(1-Methanesulfonyl-azetidin-3-yloxy)-2,2-dimethyl-2,3-dihydro-benzofuran-6-carboxylic acid (2-methyl-2H-[1,2,3]triazol-4-yl)-amide]: the activation at 10 µM was 146%, the EC50 was 5000 nM and the Emax worked out at 263%.
